From US9445594B2, “Molecules having certain pesticidal utilities, intermediates, compositions, and processes, related thereto” (priority 2014, dated 2016)

Legend:
Assay type in all cases: in vivo
[1] = test system: Cabbage Looper (Trichoplusia ni, TRIPNI) ("CL"); assay: Bioassays on CL, 128-well diet tray assay; conditions: 168 h, second instar larvae, 50 μg/cm^2 on artificial diet, 25° C., five to seven days, average of eight wells, read-out: CL % Control (or Mortality) rating
Description: (§1) Certain molecules disclosed in this document were tested against BAW, CEW, and CL using procedures described in the following examples. In the reporting of the results, the “BAW, CEW, & CL Rating Table” was used (See Table Section).
Bioassays on CL were conducted using a 128-well diet tray assay. one to five second instar CL larvae were placed in each well (3 mL) of the diet tray that had been previously filled with 1 mL of artificial diet to which 50 μg/cm^2 of the test compound (dissolved in 50 μL of 90:10 acetone-water mixture) had been applied (to each of eight wells) and then allowed to dry. Trays were covered with a clear self-adhesive cover and held at 25° C., 14:10 light-dark for five to seven days. Percent mortality was recorded for the larvae in each well; activity in the eight wells was then averaged. The results are indicated in the table entitled “Table ABC: Biological Results” (See Table Section).

[2] = test system: Yellow Fever Mosquito (Aedes aegypti, AEDSAE) ("YFM"); assay: Bioassays on YFM, 96-well plate larval assay; conditions: about 1 day-old larvae, from 4000 ppm DMSO master plate diluted, room temperature, scored after 3 days
Description: Certain molecules disclosed in this document were tested against YFM using procedures described in the following paragraph. In the reporting of the results, the “YFM Rating Table” was used (See Table Section).
Master plates containing 400 μg of a molecule dissolved in 100 μL of dimethyl sulfoxide (DMSO) (equivalent to a 4000 ppm solution) are used. A master plate of assembled molecules contains 15 μL per well. To this plate, 135 μL of a 90:10 water:acetone mixture is added to each well. A robot (Biomek® NXP Laboratory Automation Workstation) is programmed to dispense 15 μL aspirations from the master plate into an empty 96-well shallow plate (“daughter” plate). There are 6 reps (“daughter” plates) created per master. The created daughter plates are then immediately infested with YFM larvae.
The day before plates are to be treated, mosquito eggs are placed in Millipore water containing liver powder to begin hatching (4 g. into 400 mL). After the daughter plates are created using the robot, they are infested with 220 μL of the liver powder/larval mosquito mixture (about 1 day-old larvae). After plates are infested with mosquito larvae, a non-evaporative lid is used to cover the plate to reduce drying. Plates are held at room temperature for 3 days prior to grading. After 3 days, each well is observed and scored based on mortality.

[3] = test system: Beet Armyworm (Spodoptera exigua, LAPHEG) ("BAW"); assay: Bioassays on BAW, 128-well diet tray assay; conditions: 168 h, second instar larvae, 50 μg/cm^2 on artificial diet, 25° C., five to seven days, average of eight wells, read-out: BAW % Control (or Mortality) rating
Description: as §1
Bioassays on BAW were conducted using a 128-well diet tray assay. one to five second instar BAW larvae were placed in each well (3 mL) of the diet tray that had been previously filled with 1 mL of artificial diet to which 50 μg/cm^2 of the test compound (dissolved in 50 μL of 90:10 acetone-water mixture) had been applied (to each of eight wells) and then allowed to dry. Trays were covered with a clear self-adhesive cover and held at 25° C., 14:10 light-dark for five to seven days. Percent mortality was recorded for the larvae in each well; activity in the eight wells was then averaged. The results are indicated in the table entitled “Table ABC: Biological Results” (See Table Section).

CCOc1cccc(NC(=O)Nc2ccc(-c3ncn(-c4ccc(OC(F)(F)F)cc4)n3)cc2)c1 [F39, 1-(3-ethoxyphenyl)-3-(4-(1-(4-(trifluoromethoxy)phenyl)-1H-1,2,4-triazol-3-yl)phenyl)urea]
mortality at 50 µg/cm2 [1]: 50 to 100% | YFM % Control (or Mortality) rating [2]: D (No activity noticed in this bioassay) | mortality at 50 µg/cm2 [3]: 0%

O=C(NCc1ccc(-c2ncn(-c3ccc(OC(F)(F)F)cc3)n2)cc1)Nc1ccc(Cl)cc1 [F105, 1-(4-Chlorophenyl)-3-(4-(1-(4-(trifluoromethoxy)phenyl)-1H-1,2,4-triazol-3-yl)benzyl)urea]
mortality at 50 µg/cm2 [1]: 50 to 100% | YFM % Control (or Mortality) rating [2]: B (More than 0 - Less than 80) | mortality at 50 µg/cm2 [3]: 50 to 100%

COc1ccc(NC(=O)NCc2ccc(-c3ncn(-c4ccc(OC(F)(F)F)cc4)n3)cc2)cc1 [F109, 1-(4-Methoxyphenyl)-3-(4-(1-(4-(trifluoromethoxy)phenyl)-1H-1,2,4-triazol-3-yl)benzyl)urea]
mortality at 50 µg/cm2 [1]: 0% | YFM % Control (or Mortality) rating [2]: D (No activity noticed in this bioassay) | mortality at 50 µg/cm2 [3]: 0%

O=C(NCCCc1ccc(-c2ncn(-c3ccc(OC(F)(F)F)cc3)n2)cc1)Nc1cccc(Cl)c1 [F85, 1-(3-Chlorophenyl)-3-(3-(4-(1-(4-(trifluoromethoxy)phenyl)-1H-1,2,4-triazol-3-yl)phenyl)propyl)urea]
mortality at 50 µg/cm2 [1]: 50 to 100% | YFM % Control (or Mortality) rating [2]: A (80-100) | mortality at 50 µg/cm2 [3]: 50 to 100%

FC(F)(F)Oc1ccc(-n2cnc(-c3ccc(NC(=S)Nc4ccccc4-c4ccccc4)cc3)n2)cc1 [F47, 1-([1,1′-Biphenyl]-2-yl)-3-(4-(1-(4-(trifluoromethoxy)phenyl)-1H-1,2,4-triazol-3-yl)phenyl)thiourea]
mortality at 50 µg/cm2 [1]: 50 to 100% | YFM % Control (or Mortality) rating [2]: D (No activity noticed in this bioassay) | mortality at 50 µg/cm2 [3]: 0%

CC(C)c1ccccc1NC(=S)NCCCCc1ccc(-c2ncn(-c3ccc(OC(F)(F)F)cc3)n2)cc1 [F88, 1-(2-Isopropylphenyl)-3-(4-(4-(1-(4-(trifluoromethoxy)phenyl)-1H-1,2,4-triazol-3-yl)phenyl)butyl)thiourea]
mortality at 50 µg/cm2 [1]: 50 to 100% | YFM % Control (or Mortality) rating [2]: A (80-100) | mortality at 50 µg/cm2 [3]: 50 to 100%

C=C(C)c1ccccc1NC(=O)Nc1ccc(-c2ncn(-c3ccc(OC(F)(F)F)cc3)n2)cc1 [F61, 1-(2-(Prop-1-en-2-yl)phenyl)-3-(4-(1-(4-(trifluoromethoxy)phenyl)-1H-1,2,4-triazol-3-yl)phenyl)urea]
mortality at 50 µg/cm2 [1]: 50 to 100% | YFM % Control (or Mortality) rating [2]: D (No activity noticed in this bioassay) | mortality at 50 µg/cm2 [3]: 50 to 100%

CSc1ccccc1-c1cccnc1NC(=O)Nc1ccc(-c2ncn(-c3ccc(OC(F)(F)F)cc3)n2)cc1 [F59, 1-(3-(2-(Methylthio)phenyl)pyridin-2-yl)-3-(4-(1-(4-(trifluoromethoxy)phenyl)-1H-1,2,4-triazol-3-yl)phenyl)urea]
mortality at 50 µg/cm2 [1]: 50 to 100% | YFM % Control (or Mortality) rating [2]: D (No activity noticed in this bioassay) | mortality at 50 µg/cm2 [3]: 50 to 100%

O=C(Nc1ccc(-c2ncn(-c3ccc(OC(F)(F)F)cc3)n2)cc1)Nc1ccccc1Cc1ccccc1 [F51, 1-(2-Benzylphenyl)-3-(4-(1-(4-(trifluoromethoxy)phenyl)-1H-1,2,4-triazol-3-yl)phenyl)urea]
mortality at 50 µg/cm2 [1]: 0 to 50% | YFM % Control (or Mortality) rating [2]: D (No activity noticed in this bioassay) | mortality at 50 µg/cm2 [3]: 0 to 50%

O=C(Nc1ccc(-c2ncn(-c3ccc(OC(F)(F)F)cc3)n2)cc1)Nc1ccccc1-c1cc(F)c(F)c(F)c1 [F9, 1-(3′,4′,5′-Trifluoro-[1,1′-biphenyl]-2-yl)-3-(4-(1-(4-(trifluoromethoxy)phenyl)-1H-1,2,4-triazol-3-yl)phenyl)urea]
mortality at 50 µg/cm2 [1]: 50 to 100% | YFM % Control (or Mortality) rating [2]: D (No activity noticed in this bioassay) | mortality at 50 µg/cm2 [3]: 50 to 100%

FC(F)(F)Oc1ccc(-n2cnc(-c3ccc(NC(=S)Nc4ccccc4-c4nnco4)cc3)n2)cc1 [F44, 1-(2-(1,3,4-Oxadiazol-2-yl)phenyl)-3-(4-(1-(4-(trifluoromethoxy)phenyl)-1H-1,2,4-triazol-3-yl)phenyl)thiourea]
mortality at 50 µg/cm2 [1]: 0% | YFM % Control (or Mortality) rating [2]: D (No activity noticed in this bioassay) | mortality at 50 µg/cm2 [3]: 0%

Cc1ccc(NC(=O)NCCCCc2ccc(-c3ncn(-c4ccc(OC(F)(F)F)cc4)n3)cc2)cc1 [F99, 1-(p-Tolyl)-3-(4-(4-(1-(4-(trifluoromethoxy)phenyl)-1H-1,2,4-triazol-3-yl)phenyl)butyl)urea]
mortality at 50 µg/cm2 [1]: 0% | YFM % Control (or Mortality) rating [2]: D (No activity noticed in this bioassay) | mortality at 50 µg/cm2 [3]: 0 to 50%

Cc1ccc(NC(=O)NCc2ccc(-c3ncn(-c4ccc(OC(F)(F)F)cc4)n3)cc2)cc1 [F102, 1-(p-Tolyl)-3-(4-(1-(4-(trifluoromethoxy)phenyl)-1H-1,2,4-triazol-3-yl)benzyl)urea]
mortality at 50 µg/cm2 [1]: 0% | YFM % Control (or Mortality) rating [2]: D (No activity noticed in this bioassay) | mortality at 50 µg/cm2 [3]: 0%

CCc1ccccc1NC(=O)NCCCCc1ccc(-c2ncn(-c3ccc(OC(F)(F)F)cc3)n2)cc1 [F98, 1-(2-Ethylphenyl)-3-(4-(4-(1-(4-(trifluoromethoxy)phenyl)-1H-1,2,4-triazol-3-yl)phenyl)butyl)urea]
mortality at 50 µg/cm2 [1]: 0% | YFM % Control (or Mortality) rating [2]: D (No activity noticed in this bioassay) | mortality at 50 µg/cm2 [3]: 0 to 50%

O=C(Nc1ccc(-c2ncn(-c3ccc(OC(F)(F)F)cc3)n2)cc1)Nc1ccccc1-c1cccnc1 [F62, 1-(2-(Pyridin-3-yl)phenyl)-3-(4-(1-(4-(trifluoromethoxy)phenyl)-1H-1,2,4-triazol-3-yl)phenyl)urea]
mortality at 50 µg/cm2 [1]: 50 to 100% | YFM % Control (or Mortality) rating [2]: B (More than 0 - Less than 80) | mortality at 50 µg/cm2 [3]: 50 to 100%

Cc1ccccc1NC(=O)NCCCc1ccc(-c2ncn(-c3ccc(OC(F)(F)F)cc3)n2)cc1 [F77, 1-(o-tolyl)-3-(3-(4-(1-(4-(trifluoromethoxy)phenyl)-1H-1,2,4-triazol-3-yl)phenyl)propyl)urea]
mortality at 50 µg/cm2 [1]: 50 to 100% | YFM % Control (or Mortality) rating [2]: A (80-100) | mortality at 50 µg/cm2 [3]: 50 to 100%

O=C(NCCCCc1ccc(-c2ncn(-c3ccc(OC(F)(F)F)cc3)n2)cc1)Nc1ccc(Cl)cc1 [F94, 1-(4-Chlorophenyl)-3-(4-(4-(1-(4-(trifluoromethoxy)phenyl)-1H-1,2,4-triazol-3-yl)phenyl)butyl)urea]
mortality at 50 µg/cm2 [1]: 50 to 100% | YFM % Control (or Mortality) rating [2]: D (No activity noticed in this bioassay) | mortality at 50 µg/cm2 [3]: 0%

O=C(NCc1ccc(-c2ncn(-c3ccc(OC(F)(F)F)cc3)n2)cc1)Nc1ccccc1Cl [F104, 1-(2-Chlorophenyl)-3-(4-(1-(4-(trifluoromethoxy)phenyl)-1H-1,2,4-triazol-3-yl)benzyl)urea]
mortality at 50 µg/cm2 [1]: 0 to 50% | YFM % Control (or Mortality) rating [2]: B (More than 0 - Less than 80) | mortality at 50 µg/cm2 [3]: 50 to 100%

Cc1ccccc1NC(=O)NCc1ccc(-c2ncn(-c3ccc(OC(F)(F)F)cc3)n2)cc1 [F100, 1-(o-Tolyl)-3-(4-(1-(4-(trifluoromethoxy)phenyl)-1H-1,2,4-triazol-3-yl)benzyl)urea]
mortality at 50 µg/cm2 [1]: 0% | YFM % Control (or Mortality) rating [2]: D (No activity noticed in this bioassay) | mortality at 50 µg/cm2 [3]: 0%

FC(F)(F)Oc1ccc(-n2cnc(-c3ccc(NC(=S)Nc4ncccc4-c4cccnc4)cc3)n2)cc1 [F56, 1-([3,3′-Bipyridin]-2-yl)-3-(4-(1-(4-(trifluoromethoxy)phenyl)-1H-1,2,4-triazol-3-yl)phenyl)thiourea]
mortality at 50 µg/cm2 [1]: 50 to 100% | YFM % Control (or Mortality) rating [2]: D (No activity noticed in this bioassay) | mortality at 50 µg/cm2 [3]: 0 to 50%
